SMILES strings stand for the structures. A value given as a limit tells only on which side of the number the result lay.

The target in this test is PolQ ATPase enzyme (1-894) (Homo sapiens (Human), UniProt O75417). The test is described as follows: Polθ ATPase enzymatic assay (0.5 nM enzyme concentration), ADP-Glo. It is filed as biochemical. Conditions: average IC50; 0.5 nM PolQ ATPase enzyme (1-894). In short, it runs like this: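 Enzyme (0.5 nM) pre-incubated 15 min at rt with 10-point inhibitor series in 50 mM Tris pH 7.5, 10% glycerol, 5 mM DTT, 10 mM MgCl2, 0.1 mg/ml BSA; reaction started with 20 nM fork DNA and 100 μM ATP, run 180 min at rt. ADP-Glo luminescence; IC50 from 4-parameter variable-slope fit.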
PolQ ATPase enzyme (1-894), sequence (O75417 1-894): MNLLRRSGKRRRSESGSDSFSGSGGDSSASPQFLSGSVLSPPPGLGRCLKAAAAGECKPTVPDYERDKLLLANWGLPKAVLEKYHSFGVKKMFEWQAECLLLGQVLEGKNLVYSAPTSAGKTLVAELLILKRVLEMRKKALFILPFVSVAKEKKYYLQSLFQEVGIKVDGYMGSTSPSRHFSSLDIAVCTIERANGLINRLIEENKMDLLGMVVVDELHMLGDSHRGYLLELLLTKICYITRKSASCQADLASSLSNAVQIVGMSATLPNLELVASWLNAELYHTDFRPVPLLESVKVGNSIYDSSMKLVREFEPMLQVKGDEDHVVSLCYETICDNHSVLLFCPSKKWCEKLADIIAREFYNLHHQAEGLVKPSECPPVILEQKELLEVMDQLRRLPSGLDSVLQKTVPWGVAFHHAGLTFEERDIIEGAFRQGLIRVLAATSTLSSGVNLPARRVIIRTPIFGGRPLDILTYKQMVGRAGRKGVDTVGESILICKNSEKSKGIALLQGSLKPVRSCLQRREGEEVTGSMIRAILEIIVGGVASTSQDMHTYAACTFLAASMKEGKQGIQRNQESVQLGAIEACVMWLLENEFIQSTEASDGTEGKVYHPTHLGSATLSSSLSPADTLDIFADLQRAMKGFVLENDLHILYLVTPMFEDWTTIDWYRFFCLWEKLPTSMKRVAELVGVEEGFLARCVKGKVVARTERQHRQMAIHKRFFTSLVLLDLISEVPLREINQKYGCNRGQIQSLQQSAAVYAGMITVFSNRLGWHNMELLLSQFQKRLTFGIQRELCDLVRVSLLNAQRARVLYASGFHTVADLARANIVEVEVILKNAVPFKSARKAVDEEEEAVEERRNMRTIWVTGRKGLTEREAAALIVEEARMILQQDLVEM
On the technique in general: In ADP-Glo the light output rises with the ADP produced.

Molecule `COc1cnc(C(F)F)cc1-c1cc(CC(=O)N(C)C)ccc1C(=O)Nc1nnc(C#CC2CC2)s1` [Compound 265] came in with an IC50 of less than 0.25 nM.

For the molecule `COc1cnc(C(F)F)cc1-c1cnccc1C(=O)Nc1nnc(C2C[C@H]2c2ccc(C#N)nc2)s1` (some centres unmarked) [Compound 266], the IC50 worked out at 4.4 nM.

The molecule `COc1cnc(C(F)F)cc1-c1cc(C#CC2CCOCC2)ncc1C(=O)Nc1nnc(C#CC2CC2)s1` [Compound 268, N-(5-(cyclopropylethynyl)-1,3,4-thiadiazol-2-yl)-2′-(difluoromethyl)-5′-methoxy-6-((tetrahydro-2H-pyran-4-yl)ethynyl)-[4,4′-bipyridine]-3-carboxamide] showed a 50% inhibitory concentration (IC50) of 0.28 nM.

In the case of `C#Cc1cc(-c2cc(C(F)F)ncc2OC)c(C(=O)Nc2nnc(C#CC3CC3)s2)cn1` [Compound 269], the concentration for half-maximal inhibition (IC50) stood at 0.38 nM.

Take `COc1cnc(C(F)F)cc1-c1cc(C2CCOCC2)ncc1C(=O)Nc1nnc(C#CC2CC2)s1` [Compound 270]: the 50% inhibitory concentration (IC50) is 9.9 nM. This IC50 is about 26-fold higher than that of the molecule before.

`COc1cnc(C(F)F)cc1-c1cc(Oc2cnn(C)c2)ncc1C(=O)Nc1nnc(C#CC2CC2)s1` [Compound 271] returned a half-inhibitory concentration (IC50) of 0.64 nM.

As to `COc1cnc(C(F)F)cc1-c1cc(CO)ncc1C(=O)Nc1nnc(C#CC2CC2)s1` [Compound 272], the 50% inhibitory concentration (IC50) amounted to 1.2 nM. This IC50 lies about 1.9-fold higher than the previous one.

In turn, `COc1cnc(Cl)cc1-c1cnccc1C(=O)Nc1nnc(C2C[C@H]2c2ccc(C#N)cc2O)s1` (some centres unmarked) [Compound 273] came in with an IC50 of 1.8 nM.

Turning to `COc1cnc(C(F)F)cc1-c1cnccc1C(=O)Nc1nnc([C@@H]2C[C@H]2c2ccc(C#N)cc2)s1` [Compound 274], the concentration for half-maximal inhibition (IC50) worked out at 0.51 nM. This IC50 is about 3.5-fold lower than that of the molecule before.

As to `COc1cnc(C(F)F)cc1-c1cnccc1C(=O)Nc1nnc([C@H]2C[C@@H]2c2ccc(C#N)cc2)s1` [Compound 275], half-maximal inhibition (IC50) required 3.1 nM.

Molecule `COc1cnc(C(F)F)cc1-c1cc(N(C)C(C)=O)ccc1C(=O)Nc1nnc(C#CC2CC2)s1` [Compound 276] gave an IC50 of less than 0.25 nM.

On to `COc1cnc(Cl)cc1-c1cc(N2CCC(O)C2=O)ccc1C(=O)Nc1nnc(C#CC2CC2)s1` (centres unmarked) [Compound 277], for which the IC50 stood at 3.2 nM.

With `COc1cnc(C(F)F)cc1-c1cc(C)ncc1C(=O)Nc1nnc(C#CC2CC2)s1` [Compound 278], the IC50 was less than 0.25 nM.

As for `Cc1cnc(C(F)F)cc1-c1cnccc1C(=O)Nc1nnc(C#CC2CC2)s1` [Compound 279], it took 1.5 nM to reach half-maximal inhibition (IC50).

For `COc1cnc(C(F)F)cc1-c1cc(-c2ccn(C)n2)ccc1C(=O)Nc1nnc(C#CC2CC2)s1` [Compound 280], the IC50 is less than 0.25 nM.

Molecule `COc1ccc(C(F)(F)F)cc1-c1cc(N2CCN(C)C2=O)ncc1C(=O)Nc1nnc(C#CC2CC2)s1` [Compound 281] showed a half-maximal inhibitory concentration (IC50) of 20 nM.

Take `COc1cnc(C(F)F)cc1-c1cc(C2CCN(C)C2=O)ccc1C(=O)Nc1nnc(C#CC2CC2)s1` (centres unmarked) [Compound 282]: the IC50 was 0.26 nM.

In turn, `COc1cnc(C(F)F)cc1-c1cc(C#CC2(O)CCOCC2)ccc1C(=O)Nc1nnc(C#CC2CC2)s1` [Compound 283] came in with an IC50 of less than 0.25 nM.

Regarding `COc1cnc(C(F)F)cc1-c1cc(C2=CCOCC2)ncc1C(=O)Nc1nnc(C#CC2CC2)s1` [Compound 284], the IC50 came to 5.6 nM.

In turn, `COc1cnc(C(F)F)cc1-c1cc(N2CCCC2=O)ncc1C(=O)Nc1nnc(C#CC2CC2)s1` [Compound 285] registered a half-inhibitory concentration (IC50) of 4.3 nM.

As to `COc1cnc(C(F)F)cc1-c1cc(N(C)C)ncc1C(=O)Nc1nnc(C#CC2CC2)s1` [Compound 286], the half-maximal inhibitory concentration (IC50) turned out to be 21 nM. Against the preceding molecule, the IC50 is about 4.9-fold higher.

With `COc1cnc(Cl)cc1-c1cnccc1C(=O)Nc1nnc([C@@H]2C[C@H]2c2ccc(C#N)c(C)c2)s1` [Compound 287], inhibition was half-maximal at 0.93 nM (IC50). This IC50 is about 23-fold lower than that of the molecule before.

With `COc1cnc(Cl)cc1-c1cc(C#CC2(O)CCS(=O)(=O)CC2)ccc1C(=O)Nc1nnc(C#CC2CC2)s1` [Compound 288], the half-inhibitory concentration (IC50) is less than 0.25 nM.

With `COc1cnc(C(F)F)cc1-c1cc(Cl)ncc1C(=O)Nc1ncc(C#CC2CC2)s1` [Compound 289], the concentration for half-maximal inhibition (IC50) was 0.88 nM.

For `COc1ccc(C(F)(F)F)cc1-c1cc(N2CCCC2=O)ncc1C(=O)Nc1nnc(C#CC2CC2)s1` [Compound 290], the IC50 was 7.3 nM. Compared with the last molecule, the IC50 is about 8.3-fold higher.

In turn, `COc1cnc(C(F)F)cc1-c1cc(Cl)ncc1C(=O)Nc1nnc(C#CC2CC2)s1` [Compound 291] came in with an IC50 of 0.35 nM.

`COc1ccc(C(F)F)cc1-c1cc(C(=O)N(C)C)ncc1C(=O)Nc1nnc(C#CC2CC2)s1` [Compound 293]: the 50% inhibitory concentration (IC50) is less than 0.25 nM.

In turn, `COc1cnc(Cl)cc1-c1cc(N(C)C(C)=O)ccc1C(=O)Nc1nnc(C#CC2CC2)s1` [Compound 294] came in with a concentration for half-maximal inhibition (IC50) of 0.29 nM.

`COc1cnc(Cl)cc1-c1cc(N2CCN(C)C2=O)ccc1C(=O)Nc1nnc(C#CC2CC2)s1` [Compound 295] had a half-inhibitory concentration (IC50) of 2.7 nM.

In turn, `COc1ccc(C(F)(F)F)cc1-c1cc(-c2cnn(C)c2)ncc1C(=O)Nc1nnc(C#CC2CC2)s1` [Compound 296] came in with a half-maximal inhibitory concentration (IC50) of 1.6 nM.

Molecule `COc1ccc(C(F)(F)F)cc1-c1cc(C2CCN(C)C2=O)ncc1C(=O)Nc1nnc(C#CC2CC2)s1` (centres unmarked) [Compound 297] gave an IC50 of 0.69 nM.

`COc1cnc(Cl)cc1-c1cc(-c2n[nH]cc2C)ccc1C(=O)Nc1nnc(C#CC2CC2)s1` [Compound 298] came in with an IC50 of 0.8 nM.

On to `Cc1cnc(Cl)cc1-c1cnccc1C(=O)Nc1nnc(C#CC2CC2)s1` [Compound 299], for which 0.6 nM corresponded to half-maximal inhibition (IC50). This IC50 and that of the molecule before are within 1.5-fold of each other.

As to `COc1cnc(Cl)cc1-c1cc(-c2cn(C)nn2)ccc1C(=O)Nc1nnc(C#CC2CC2)s1` [Compound 300], 0.5 nM corresponded to half-maximal inhibition (IC50).

The molecule `COc1cnc(C(F)F)cc1-c1cc(Oc2nccs2)ccc1C(=O)Nc1nnc(C#CC2CC2)s1` [Compound 301] came in with an IC50 of less than 0.25 nM.

Molecule `COc1cnc(Cl)cc1-c1cc(Oc2nccs2)ccc1C(=O)Nc1nnc(C#CC2CC2)s1` [Compound 302] returned an IC50 of 0.35 nM. That is a sub-nanomolar value.

Consider `COc1cnc(C(F)F)cc1-c1cnccc1C(=O)Nc1nnc([C@@H]2C[C@H]2c2ccc(C#N)cc2)s1` [Compound 303], for which the concentration for half-maximal inhibition (IC50) amounted to 1.1 nM.

The molecule `COc1cnc(Cl)cc1-c1cnccc1C(=O)Nc1nnc(C2C[C@H]2c2ccc(C#N)cc2OC)s1` (some centres unmarked) [Compound 304] gave a half-maximal inhibitory concentration (IC50) of 13 nM.

Molecule `COc1ccc(C(F)(F)F)cc1-c1cnccc1C(=O)Nc1nnc(C#CC2CC2(C)C)s1` (centres unmarked) [Compound 306] came in with a concentration for half-maximal inhibition (IC50) of 0.56 nM.

As to `COc1cnc(Cl)cc1-c1cc(-c2ccn(C)n2)ccc1C(=O)Nc1nnc(C#CC2CC2)s1` [Compound 307], the IC50 was less than 0.25 nM.

As to `COc1ccc(C(F)(F)F)cc1-c1cc(-c2ccn(C)n2)ncc1C(=O)Nc1nnc(C#CC2CC2)s1` [Compound 308], the IC50 came to 0.42 nM.

The molecule `COc1ccc(C(F)(F)F)cc1-c1cc(-c2ccn(C)n2)ncc1C(=O)Nc1nnc(C#CC2CC2)s1` [Compound 309] came in with an IC50 of 0.99 nM. Compared with the last molecule, the IC50 is about 2.4-fold higher.

In turn, `COc1cnc(Cl)cc1-c1cc(CS(C)(=O)=O)ccc1C(=O)Nc1nnc(C#CC2CC2)s1` [Compound 310] came in with a 50% inhibitory concentration (IC50) of 4.4 nM.

In the case of `COc1cnc(Cl)cc1-c1cc(N2CCCS2(=O)=O)ccc1C(=O)Nc1nnc(C#CC2CC2)s1` [Compound 311], the IC50 was found to be 8.1 nM.

The molecule `COc1cnc(Cl)cc1-c1cc(-c2cn[nH]c2)ccc1C(=O)Nc1nnc(C#CC2CC2)s1` [Compound 312] had a 50% inhibitory concentration (IC50) of 0.94 nM.

Regarding `COc1cnc(C(F)F)cc1-c1cc(C#N)ncc1C(=O)Nc1nnc(C#CC2CC2)s1` [Compound 313], it took 0.87 nM to reach half-maximal inhibition (IC50).

Turning to `COc1cnc(Cl)cc1-c1cn2cc(C(=O)N(C)C)nc2cc1C(=O)Nc1nnc(C#CC2CC2)s1` [Compound 314], the half-maximal inhibitory concentration (IC50) was found to be 0.49 nM.

By IC50 is commonly meant the concentration that inhibits the measured activity by half. Low readings indicate inhibition by little substance, high ones a need for much substance.
